Measurements published in US20250057846A1, “COMBINATION OF A TASK1/3 CHANNEL BLOCKER WITH A MUSCARINIC RECEPTOR ANTAGONIST FOR THE TREATMENT OF SLEEP APNEA” (BAYER AKTIENGESELLSCHAFT, priority 2021, published 2025).

Test system: pig model of obstructive sleep apnea (OSA)
Test: pig model of obstructive sleep apnea (OSA): collapsibility of the upper respiratory tract under negative pressure
Assay type: in vivo, German Landrace pigs
From the text: The therapeutic potential of the combination of a TASK1/3 channel blocker with a muscarinic receptor antagonist according to the present invention in sleep apnea can be assessed preclinically in a pig model of obstructive sleep apnea (OSA).
Using negative pressure, it is possible to induce collapse and thus obstruction of the upper respiratory tract in anaesthetized, spontaneously breathing pigs (Wirth K. J. et al., Sleep 36(5) (2013) pp. 699-708).
German Landrace pigs are used for the model. The pigs are anaesthetized and tracheotomized. Two tracheal cannulas are inserted into the trachea, one into the rostral part and the other into the caudal part of the trachea.
Using a connection piece, the rostral cannula is connected to a tube to the negative pressure device and to the distal tracheal cannula. The distal tracheal cannula is additionally connected to a tube with an open end to atmosphere via a connection piece that served for free tracheal breathing, circumventing the upper airway. By appropriate opening and clamping of those tubes breathing can be switched from nasal breathing to breathing through the caudal tracheal cannula, circumventing the upper airway, and the (isolated) upper airway can be connected to the negative pressure device, causing airflow in the inspiratory direction.
At certain points in time, the collapsibility of the upper respiratory tract is tested by having the pig breathe via the caudal cannula and applying negative pressures of −50, −100 and −150 cm water head (cm H2O) to the upper respiratory tract. This causes the upper respiratory tract to collapse, which manifests itself in an interruption of the airflow and a pressure drop in the tube system. This test is conducted prior to the administration of the test substance and at certain intervals after the administration of the test substance. An appropriately effective test substance can prevent this collapse of the respiratory tract in the inspiratory phase.

[1] = R-oxybutynin i.v. bolus 1 mg/kg then i.v. infusion 0.275 mg/kg/h for four hours, given at 0 min, time 0 min
[2] = R-oxybutynin i.v. bolus 1 mg/kg then i.v. infusion 0.275 mg/kg/h for four hours, given at 0 min, time 10 min
[3] = R-oxybutynin i.v. bolus 1 mg/kg then i.v. infusion 0.275 mg/kg/h for four hours, given at 0 min, time 30 min
[4] = R-oxybutynin i.v. bolus 1 mg/kg then i.v. infusion 0.275 mg/kg/h for four hours, given at 0 min, time 60 min
[5] = R-oxybutynin i.v. bolus 1 mg/kg then i.v. infusion 0.275 mg/kg/h for four hours, given at 0 min, time 120 min
[6] = R-oxybutynin i.v. bolus 1 mg/kg then i.v. infusion 0.275 mg/kg/h for four hours, given at 0 min, time 180 min
[7] = R-oxybutynin i.v. bolus 1 mg/kg then i.v. infusion 0.275 mg/kg/h for four hours, given at 0 min, time 240 min
[8] = R-oxybutynin i.v. bolus 1 mg/kg then i.v. infusion 0.275 mg/kg/h for four hours, given at 0 min, time 300 min
[9] = combination experiment: R-oxybutynin i.v. bolus 1 mg/kg then infusion 0.275 mg/kg/h for four hours at 0 min, nasal TASK1/3 channel blocker only given at 120 min, time 0 min
[10] = combination experiment: R-oxybutynin i.v. bolus 1 mg/kg then infusion 0.275 mg/kg/h for four hours at 0 min, nasal TASK1/3 channel blocker only given at 120 min, time 10 min
[11] = combination experiment: R-oxybutynin i.v. bolus 1 mg/kg then infusion 0.275 mg/kg/h for four hours at 0 min, nasal TASK1/3 channel blocker only given at 120 min, time 30 min
[12] = combination experiment: R-oxybutynin i.v. bolus 1 mg/kg then infusion 0.275 mg/kg/h for four hours at 0 min, nasal TASK1/3 channel blocker only given at 120 min, time 60 min
[13] = combination experiment: R-oxybutynin i.v. bolus 1 mg/kg then infusion 0.275 mg/kg/h for four hours at 0 min, nasal TASK1/3 channel blocker only given at 120 min, time 90 min
[14] = combination experiment: R-oxybutynin i.v. bolus 1 mg/kg then infusion 0.275 mg/kg/h for four hours at 0 min, time 120 min = time of nasal application of TASK1/3 channel blocker
[15] = oxybutynin i.v. bolus 1 mg/kg then i.v. infusion 0.275 mg/kg/h for four hours, given at 0 min, time 0 min
[16] = TASK1/TASK3 channel blocker alone, intranasal 0.3 μg, given at 0 min, time 0 min
[17] = TASK1/TASK3 channel blocker alone, intranasal 0.3 μg, given at 0 min, time 10 min
[18] = TASK1/TASK3 channel blocker alone, intranasal 0.3 μg, given at 0 min, time 30 min
[19] = TASK1/TASK3 channel blocker alone, intranasal 0.3 μg, given at 0 min, time 60 min
[20] = TASK1/TASK3 channel blocker alone, intranasal 0.3 μg, given at 0 min, time 90 min

CCN(CC)CC#CCOC(=O)[C@](O)(c1ccccc1)C1CCCCC1 [R-oxybutynin, R-Oxybutynin]
time points at which upper airway collapsibility was inhibited at all negative pressures of −50, −100 and −150 cm head (cm H2O) in all pigs (R-Oxybutynin i.v. bolus 1 mg/kg then i.v. infusion 0,275 mg/kg/h for four hours): at no time | upper airway collapsibility at the negative pressure of −50 cm head (cm H2O) (R-Oxybutynin i.v. bolus 1 mg/kg then i.v. infusion 0,275 mg/kg/h for four hours, time point 60 min after intravenous administration): inhibited | Percent pigs without collaps −50 cm H2O, % [1]: 0% | Percent pigs without collaps −100 cm H2O, % [1]: 0% | Percent pigs without collaps −150 cm H2O, % [1]: 0% | Percent pigs without collaps −50 cm H2O, % [2]: 0% | Percent pigs without collaps −100 cm H2O, % [2]: 0% | Percent pigs without collaps −150 cm H2O, % [2]: 0% | Percent pigs without collaps −50 cm H2O, % [3]: 0% | Percent pigs without collaps −100 cm H2O, % [3]: 0% | Percent pigs without collaps −150 cm H2O, % [3]: 0% | Percent pigs without collaps −50 cm H2O, % [4]: 100% | Percent pigs without collaps −100 cm H2O, % [4]: 50% | Percent pigs without collaps −150 cm H2O, % [4]: 0% | Percent pigs without collaps −50 cm H2O, % [5]: 0% | Percent pigs without collaps −100 cm H2O, % [5]: 0% | Percent pigs without collaps −150 cm H2O, % [5]: 0% | Percent pigs without collaps −50 cm H2O, % [6]: 0% | Percent pigs without collaps −100 cm H2O, % [6]: 0% | Percent pigs without collaps −150 cm H2O, % [6]: 0% | Percent pigs without collaps −50 cm H2O, % [7]: 0% | Percent pigs without collaps −100 cm H2O, % [7]: 0% | Percent pigs without collaps −150 cm H2O, % [7]: 0% | Percent pigs without collaps −50 cm H2O, % [8]: 0% | Percent pigs without collaps −100 cm H2O, % [8]: 0% | Percent pigs without collaps −150 cm H2O, % [8]: 0% | Percent pigs without collaps −50 cm H2O, % [9]: 0% | Percent pigs without collaps −100 cm H2O, % [9]: 0% | Percent pigs without collaps −150 cm H2O, % [9]: 0% | Percent pigs without collaps −50 cm H2O, % [10]: 0% | Percent pigs without collaps −100 cm H2O, % [10]: 0% | Percent pigs without collaps −150 cm H2O, % [10]: 0% | Percent pigs without collaps −50 cm H2O, % [11]: 0% | Percent pigs without collaps −100 cm H2O, % [11]: 0% | Percent pigs without collaps −150 cm H2O, % [11]: 0% | Percent pigs without collaps −50 cm H2O, % [12]: 100% | Percent pigs without collaps −100 cm H2O, % [12]: 33% | Percent pigs without collaps −150 cm H2O, % [12]: 0% | Percent pigs without collaps −50 cm H2O, % [13]: 0% | Percent pigs without collaps −100 cm H2O, % [13]: 0% | Percent pigs without collaps −150 cm H2O, % [13]: 0% | Percent pigs without collaps −50 cm H2O, % [14]: 0% | Percent pigs without collaps −100 cm H2O, % [14]: 0% | Percent pigs without collaps −150 cm H2O, % [14]: 0%

CCN(CC)CC#CCOC(=O)C(O)(c1ccccc1)C1CCCCC1 (stereo not shown) [oxybutynin, Oxybutynin]
Percent pigs without collaps −50 cm H2O, % [15]: 0% | Percent pigs without collaps −100 cm H2O, % [15]: 0% | Percent pigs without collaps −150 cm H2O, % [15]: 0% | time points at which upper airway collapsibility was inhibited at all three negative pressures of −50, −100 and −150 cm head (cm H2O) in all pigs (oxybutynin i.v. bolus 1 mg/kg then i.v. infusion 0,275 mg/kg/h for four hours): at no time point

COc1ccc(Cl)c(C(=O)N2C3CCC2CN(Cc2c(-c4ccc(C(C)C)cc4)nc4ncccn24)C3)n1 [(3-Chloro-6-methoxypyridin-2-yl)(3-{[2-(4-isopropylphenyl)imidazo[1,2-a]pyrimidin-3-yl]methyl}-3,8-diazabicyclo[3.2.1]oct-8-yl)methanone]
effect of the dose on upper airway collapsibility (TASK1/TASK3 channel blocker alone, 0.3 μg): non effective dose | Percent pigs without collaps −50 cm H2O, % [16]: 0% | Percent pigs without collaps −100 cm H2O, % [16]: 0% | Percent pigs without collaps −150 cm H2O, % [16]: 0% | Percent pigs without collaps −50 cm H2O, % [17]: 33% | Percent pigs without collaps −100 cm H2O, % [17]: 33% | Percent pigs without collaps −150 cm H2O, % [17]: 0% | Percent pigs without collaps −50 cm H2O, % [18]: 0% | Percent pigs without collaps −100 cm H2O, % [18]: 0% | Percent pigs without collaps −150 cm H2O, % [18]: 0% | Percent pigs without collaps −50 cm H2O, % [19]: 0% | Percent pigs without collaps −100 cm H2O, % [19]: 0% | Percent pigs without collaps −150 cm H2O, % [19]: 0% | Percent pigs without collaps −50 cm H2O, % [20]: 0% | Percent pigs without collaps −100 cm H2O, % [20]: 0% | Percent pigs without collaps −150 cm H2O, % [20]: 0%
